{
  "source": "patent US20250099420A1",
  "about": "“SMALL MOLECULE MODULATORS OF GPR139 COMPLEX” (University of Florida Research Foundation, Incorporated, priority 2022, published 2025)",
  "key": {"[1]": {"test_system": "parental HEK cells", "assay": "HEK parental Agonist Counterscreen Assay (non-transfected cells)", "type": "cell-based", "details": "for Averaged Max % Response (±St. Dev.): activity relative to known control", "source_text": "The high control for the agonist counterscreen was Forskolin not acetylcholine."}, "[2]": {"biological_target": "T1, GPR139 (Homo sapiens, UniProt Q6DWJ6)", "T1 sequence (Q6DWJ6 1-353)": "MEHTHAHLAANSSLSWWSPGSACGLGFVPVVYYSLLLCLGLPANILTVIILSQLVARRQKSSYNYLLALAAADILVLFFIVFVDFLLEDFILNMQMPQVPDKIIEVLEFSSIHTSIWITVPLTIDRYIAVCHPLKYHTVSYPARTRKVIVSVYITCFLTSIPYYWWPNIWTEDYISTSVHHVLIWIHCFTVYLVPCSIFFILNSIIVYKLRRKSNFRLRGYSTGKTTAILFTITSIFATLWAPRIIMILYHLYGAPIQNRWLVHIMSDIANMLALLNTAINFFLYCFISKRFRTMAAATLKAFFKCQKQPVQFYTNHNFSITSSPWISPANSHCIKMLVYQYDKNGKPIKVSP", "assay": "GPR139 Agonist titration / agonist counterscreen assay (calcium detection, HEK-GPR139 cells)", "type": "cell-based", "parameters": "expressed in transfected cells; host or cells: HEK Aequorin cells, Maxcyte transient transfection", "details": "GPR139 Agonist Activity; for Averaged Max % Response (±St. Dev.): activity relative to known control; for EC50: read-out: EC50", "experimental": "GPR activity was assessed using a calcium detection assay. […] Negative control samples were treated with DMSO. […] Intracellular calcium was measured using Calcium 5."}, "[3]": {"details": "Homo sapiens, HEK293, HEK Agonist Activity, parental non-transfected HEK cells"}, "[4]": {"details": "values printed in E-notation without unit"}, "[5]": {"details": "Homo sapiens, HEK293, HEK Agonist Activity section of Table 4 (parental HEK counterscreen)"}},
  "note": "Where two headings read alike, the source gives them in different places.",
  "data": [
    {"smiles": "CC1(c2ccc3ccccc3c2)NC(=O)C(CC(=O)NCc2ccco2)C1=O", "note": "(stereo not drawn) [SR-01000058120]", "values": [
      {"measurement": "Lipophilic Efficiency (logD)", "setting": "[1]; HEK Agonist Activity", "value": 2.18},
      {"measurement": "Lipophilic Efficiency (logP)", "setting": "[1]; HEK Agonist Activity", "value": 2.18},
      {"measurement": "Averaged Max % Response (±St. Dev.)", "setting": "[1]; HEK Agonist Activity", "value": "11.91 ± 6.77", "unit": "%"},
      {"measurement": "EC50", "setting": "[1]; [3]", "value": "> 14300", "unit": "nM"},
      {"measurement": "Averaged Max % Response (±St. Dev.)", "setting": "[2]", "value": "103.66 ± 2.94", "unit": "%"},
      {"measurement": "Lipophilic Efficiency (logD)", "setting": "[2]; based on logD", "value": 4.73},
      {"measurement": "Lipophilic Efficiency (logP)", "setting": "[2]; based on logP", "value": 4.73},
      {"measurement": "Hill Slope", "setting": "[2]; fitted dose-response curve", "value": 0.17},
      {"measurement": "Efficiency Ligand", "setting": "[2]; ligand efficiency", "value": 0.37},
      {"measurement": "EC50", "setting": "[2]; [4]", "value": 40.5, "unit": "nM"}
    ]},
    {"smiles": "O=C(CSc1ccc(Cl)cc1)NNC(=O)c1ccc(O)cc1", "note": "[SR-01000060349]", "values": [
      {"measurement": "Lipophilic Efficiency (logD)", "setting": "[1]; HEK Agonist Activity", "value": 2.34},
      {"measurement": "Lipophilic Efficiency (logP)", "setting": "[1]; HEK Agonist Activity", "value": 2.30},
      {"measurement": "Averaged Max % Response (±St. Dev.)", "setting": "[1]; HEK Agonist Activity", "value": "36.27 ± 9.28", "unit": "%"},
      {"measurement": "EC50", "setting": "[1]; [3]", "value": "> 15100", "unit": "nM"},
      {"measurement": "Averaged Max % Response (±St. Dev.)", "setting": "[2]", "value": "123.74 ± 9.56", "unit": "%"},
      {"measurement": "Lipophilic Efficiency (logD)", "setting": "[2]; based on logD", "value": 5.31},
      {"measurement": "Lipophilic Efficiency (logP)", "setting": "[2]; based on logP", "value": 5.26},
      {"measurement": "Hill Slope", "setting": "[2]; fitted dose-response curve", "value": 0.81},
      {"measurement": "Efficiency Ligand", "setting": "[2]; ligand efficiency", "value": 0.50},
      {"measurement": "EC50", "setting": "[2]; [4]", "value": 16.2, "unit": "nM"}
    ]},
    {"smiles": "COc1ccccc1NC(=O)NNC(=O)CSc1cc(C)c(Br)cc1C", "note": "[SR-01000061624]", "values": [
      {"measurement": "Lipophilic Efficiency (logD)", "setting": "[1]; HEK Agonist Activity", "value": 0.94},
      {"measurement": "Lipophilic Efficiency (logP)", "setting": "[1]; HEK Agonist Activity", "value": 0.93},
      {"measurement": "Averaged Max % Response (±St. Dev.)", "setting": "[1]; HEK Agonist Activity", "value": "13.43 ± 5.07", "unit": "%"},
      {"measurement": "EC50", "setting": "[1]; [3]", "value": "> 14100", "unit": "nM"},
      {"measurement": "Averaged Max % Response (±St. Dev.)", "setting": "[2]", "value": "120.81 ± 8.57", "unit": "%"},
      {"measurement": "Lipophilic Efficiency (logD)", "setting": "[2]; based on logD", "value": 4.01},
      {"measurement": "Lipophilic Efficiency (logP)", "setting": "[2]; based on logP", "value": 4.00},
      {"measurement": "Hill Slope", "setting": "[2]; fitted dose-response curve", "value": 1.00},
      {"measurement": "Efficiency Ligand", "setting": "[2]; ligand efficiency", "value": 0.43},
      {"measurement": "EC50", "setting": "[2]; [4]", "value": 12, "unit": "nM"}
    ]},
    {"smiles": "CCCCNC(=O)NNC(=O)CSc1cc(C)c(Br)cc1C", "note": "[SR-01000061818]", "values": [
      {"measurement": "Lipophilic Efficiency (logD)", "setting": "[1]; HEK Agonist Activity", "value": 1.46},
      {"measurement": "Lipophilic Efficiency (logP)", "setting": "[1]; HEK Agonist Activity", "value": 1.46},
      {"measurement": "Averaged Max % Response (±St. Dev.)", "setting": "[1]; HEK Agonist Activity", "value": "3.00 ± 9.38", "unit": "%"},
      {"measurement": "EC50", "setting": "[1]; HEK Agonist Activity, parental non-transfected HEK cells", "value": "> 14500", "unit": "nM"},
      {"measurement": "Averaged Max % Response (±St. Dev.)", "setting": "[2]", "value": "110.53 ± 3.36", "unit": "%"},
      {"measurement": "Lipophilic Efficiency (logD)", "setting": "[2]; based on logD", "value": 4.41},
      {"measurement": "Lipophilic Efficiency (logP)", "setting": "[2]; based on logP", "value": 4.41},
      {"measurement": "Hill Slope", "setting": "[2]; fitted dose-response curve", "value": 0.71},
      {"measurement": "Efficiency Ligand", "setting": "[2]; ligand efficiency", "value": 0.50},
      {"measurement": "EC50", "setting": "[2]; [4]", "value": 16.3, "unit": "nM"}
    ]},
    {"smiles": "O=C(CN1CCN(C/C=C/c2ccccc2)CC1)NCCCc1ccccc1", "note": "[SR-01000062290]", "values": [
      {"measurement": "Lipophilic Efficiency (logD)", "setting": "[1]; HEK Agonist Activity section", "value": 1.34},
      {"measurement": "Lipophilic Efficiency (logP)", "setting": "[1]; HEK Agonist Activity section", "value": 1.10},
      {"measurement": "Averaged Max % Response (±St. Dev.)", "setting": "[1]; HEK Agonist Activity section", "value": "11.38 ± 4.42", "unit": "%"},
      {"measurement": "EC50", "setting": "[1]; [5]", "value": "> 14900", "unit": "nM"},
      {"measurement": "Averaged Max % Response (±St. Dev.)", "setting": "[2]", "value": "128.31 ± 15.25", "unit": "%"},
      {"measurement": "Lipophilic Efficiency (logD)", "setting": "[2]; based on logD", "value": 3.75},
      {"measurement": "Lipophilic Efficiency (logP)", "setting": "[2]; based on logP", "value": 3.51},
      {"measurement": "Hill Slope", "setting": "[2]; fitted dose-response curve", "value": 0.74},
      {"measurement": "Efficiency Ligand", "setting": "[2]; ligand efficiency", "value": 0.36},
      {"measurement": "EC50", "setting": "[2]; [4]", "value": 58.8, "unit": "nM"}
    ]},
    {"smiles": "C=C(CC1C(=O)CC(c2ccccc2)(c2ccccc2)C1=O)C(C)CC1=CC=CC1", "note": "(stereo not drawn) [SR-01000062305]", "values": [
      {"measurement": "Lipophilic Efficiency (logD)", "setting": "[1]; HEK Agonist Activity section", "value": 1.70},
      {"measurement": "Lipophilic Efficiency (logP)", "setting": "[1]; HEK Agonist Activity section", "value": 1.70},
      {"measurement": "Averaged Max % Response (±St. Dev.)", "setting": "[1]; HEK Agonist Activity section", "value": "−4.71 ± 5.40", "unit": "%"},
      {"measurement": "EC50", "setting": "[1]; [5]", "value": "> 14800", "unit": "nM"},
      {"measurement": "Efficiency Ligand", "setting": "[2]", "value": 0.27},
      {"measurement": "Lipophilic Efficiency (logD)", "setting": "[2]", "value": 2.66},
      {"measurement": "Lipophilic Efficiency (logP)", "setting": "[2]", "value": 2.66},
      {"measurement": "Averaged Max % Response (±St. Dev.)", "setting": "[2]", "value": "121.63 ± 9.56", "unit": "%"}
    ]},
    {"smiles": "O=C(CN1C(=O)OC(O)(c2ccc(Cl)cc2Cl)C1=O)Nc1ccccc1Cl", "note": "(stereo not drawn) [SR-01000062419]", "values": [
      {"measurement": "Lipophilic Efficiency (logD)", "setting": "[1]; HEK Agonist Activity section", "value": 0.98},
      {"measurement": "Lipophilic Efficiency (logP)", "setting": "[1]; HEK Agonist Activity section", "value": 0.97},
      {"measurement": "Averaged Max % Response (±St. Dev.)", "setting": "[1]; HEK Agonist Activity section", "value": "19.92 ± 2.49", "unit": "%"},
      {"measurement": "EC50", "setting": "[1]; [5]", "value": "> 14500", "unit": "nM"},
      {"measurement": "Efficiency Ligand", "setting": "[2]", "value": 0.33},
      {"measurement": "Hill Slope", "setting": "[2]", "value": 0.63},
      {"measurement": "Lipophilic Efficiency (logD)", "setting": "[2]", "value": 2.50},
      {"measurement": "Lipophilic Efficiency (logP)", "setting": "[2]", "value": 2.49},
      {"measurement": "EC50", "setting": "[2]; HEK-GPR139 cells", "value": 438, "unit": "nM"},
      {"measurement": "Averaged Max % Response (±St. Dev.)", "setting": "[2]", "value": "105.27 ± 9.38", "unit": "%"}
    ]},
    {"smiles": "O=C(CN1C(=O)NC2(CCc3ccccc3C2)C1=O)N1CCc2ccccc2C1", "note": "(stereo not drawn) [SR-01000062726]", "values": [
      {"measurement": "Lipophilic Efficiency (logD)", "setting": "[1]; HEK Agonist Activity section", "value": 2.40},
      {"measurement": "Lipophilic Efficiency (logP)", "setting": "[1]; HEK Agonist Activity section", "value": 2.40},
      {"measurement": "Averaged Max % Response (±St. Dev.)", "setting": "[1]; HEK Agonist Activity section", "value": "−12.60 ± 9.55", "unit": "%"},
      {"measurement": "EC50", "setting": "[1]; [5]", "value": "> 14500", "unit": "nM"},
      {"measurement": "Averaged Max % Response (±St. Dev.)", "setting": "[2]", "value": "103.63 ± 9.70", "unit": "%"},
      {"measurement": "Lipophilic Efficiency (logD)", "setting": "[2]; based on logD", "value": 4.25},
      {"measurement": "Lipophilic Efficiency (logP)", "setting": "[2]; based on logP", "value": 4.25},
      {"measurement": "Hill Slope", "setting": "[2]; fitted dose-response curve", "value": 0.89},
      {"measurement": "Efficiency Ligand", "setting": "[2]; ligand efficiency", "value": 0.32},
      {"measurement": "EC50", "setting": "[2]; [4]", "value": 205, "unit": "nM"}
    ]}
  ]
}
